The values below come from patent US20130158014A1, “METHOD FOR TREATING DISEASES ASSOCIATED WITH ALTERATIONS IN CELLULAR INTEGRITY USING RHO KINASE INHIBITOR COMPOUNDS” (priority 2008, published 2013).

In data set [1] the test system is LPS-challenged mice. Briefly: LPS-induced neutrophilia assay. The format is in vivo, mouse. Particulars: intratracheal 0.5-50 μmol/kg one hour prior to LPS challenge; BALF four hours after; FIG. 12. As for the experimental part: (§1) Male BALB/c mice, approximately 19 to 21 grams, were ordered from Charles River Laboratories (Raleigh, N.C.). All animals were challenged with aerosolized LPS (10 μg/ml) for 25 minutes on study day 0. LPS aerosol was generated using an Aerogen Aeroneb nebulizer and controller providing a flow of 400 μl/min and a particle size of 2-4 μm MMAD. Rolipram was administered i.p at 20 mg/kg. […] Total cell counts were determined using the Coulter Counter. For differential evaluations, BALF was centrifuged and cytospin slides prepared and stained […]. Manual leukocyte counts were then completed on 200 cells. The final concentration of individual leukocyte cell types per ml of BALF was determined by multiplication of the relative percentage of individual leukocytes with the total amount of cells/ml of BALF fluid. The concentration of IL-1β in the BALF samples was determined using commercially available Bio-plex kits (Bio-Rad).

Data set [2] relates to LPS-challenged mice. Briefly: LPS-induced cytokine production assay (IL-1β in BALF). The format is in vivo, mouse. The note with it: intratracheal, one hour prior to LPS challenge; BALF four hours after; FIG. 13. The method, then:
as §1

Data set [3] has as its system ova-sensitized, ova-challenged mice. The experiment in a line: Mouse ovalbumin sensitization model: eosinophils in BALF. The format is in vivo. The method, then: (§2) Male BALB/c mice were ordered from Charles River Laboratories (Raleigh, N.C.). The animals were approximately 19 to 21 grams at time of receipt. Upon arrival, the animals were randomized into groups of five males per cage and assigned to a dosing group. Animals were quarantined for 7 days under test conditions. They were observed daily for general health status and ability to adapt to the water bottles. Animals were sensitized on day 0 and 14 of study by an intraperitoneal injection with 20 μg of ovalbumin (ova) and 2.0 mg aluminum hydroxide (alum) which initiates the development of a specific T-helper (Th) cells type 2 resulting in asthmatic animals (denoted as Ova in the figures). One group of animals received an injection of saline to use as control animals (denoted as normal in the figures). All animals were challenged with aerosolized 1% ova once daily for 25 minutes on days 28, 29, and 30 (Zosky, et al. Respiratory Research. 2004; 5:15). Aerosol challenge consists of using an Aerogen Aeroneb nebulizer and controller with a particle size of 4-6 μm mass median aerodynamic diameter (MMAD) with a distribution of 400 μl per minute. This aerosol challenge is necessary to target the Th2-driven allergic inflammation in the lower airways. […]
(§3) Bronchoalveolar lavage fluid (BALF) was collected by infusing 3.0 ml of saline with 10% fetal calf serum into the lungs via the trachea and then withdrawing the fluid. The total amount of cells/ml of BALF fluid was determined via manual cell count on hemocytometer. The BALF was centrifuged, supernatant removed and analyzed for cytokine concentrations as described below, and cell pellet reconstituted in 500 μL of fluid. […] Following Hema3 stain, relative percentages of individual leukocytes were determined on a 200 cell count for each sample. The final concentration of individual leukocyte cell types per ml of BALF was determined by multiplication of the relative percentage of individual leukocytes with the total amount of cells/ml of BALF fluid.

The nature of data set [4]: Rat oral pharmacokinetics (plasma). The format is in vivo. Particulars: rat oral PK, mean n = 3 rats, 20-30 μmmol/kg.
Description: Plasma (EDTA K2 anticoagulant) was collected from male, cannulated, CD Sprague Dawley rats to determine the pharmacokinetics of formulations containing compound inhibitors of Rho kinase. Each animal was dosed orally with a 4 ml/kg solution or suspension of each test compound in 10 mM acetate buffered saline, pH 4.5 at a final concentration range of 20-30 μmmol/kg. Blood was collected at 0.25, 0.5, 1, 2, 4, 6, 8, and 24 hours. Plasma samples were assayed for the concentration of the test compound using an on-line, solid phase extraction LC/MS/MS analysis system.
Samples were analyzed on a QSTAR Elite, hybrid quadrupole time-of-flight mass spectrometer (Applied Biosystems, Framingham, Mass.) coupled with a Symbiosis Pharma integrated, on-line SPE-HPLC system (Spark Holland Inc., Plainsboro, N.J.). Analyst QS 2.0 software was used for instrument control, data acquisition and processing. […] Mobile Phase A consisted of 0.1% ammonium hydroxide in water and Mobile Phase B consisted of 0.1% formic acid in acetonitrile. Pharmacokinetic analyses were performed using WinNonlin software version 5.2 (Pharsight Corporation, Mountain View, Calif.).
As determined from the plasma concentration versus time curves, the time to peak and peak exposure are represented by the values Tmax and Cmax, respectively. The AUC values (nM*hr) shown were calculated as the areas under the plasma concentration versus time curves from time zero through the time of the last observable value and represent the total exposure of the compound over the course of the study. Half-life values or the amount of time required for the plasma levels of the compound to decline to half the initial value are represented as t1/2.
The test system of data set [5] is ova-sensitized, ova-challenged mice. Briefly: Prevention of airway hyperreactivity (Penh, methacholine) in mouse ovalbumin model. The format is in vivo. As for the experimental part: The anti-inflammatory dosing paradigm consists of dosing the animals once a day starting on day 27 and finishing on either day 30 or 31 (1 hr prior to the aerosolized ovalbumin challenges on days 28 to 30) but not on day 32 when hyperreactivity evaluation occurs. […] Exposure to the methacholine doses consisted of a 3 minute period during which a nebulizer was aerosolizing the methacholine and an additional 3 minute period following the cessation of nebulization. […] Enhanced pause (Penh), a unitless index of airway hyperreactivity, is derived from the expiratory side of the respiratory waveform measured via the plethysmograph and is used as an indirect measure of airway resistance and hyperreactivity. […] Following the methacholine dose response, BALF was collected and all animals were anesthetized, bled and euthanized. […] The Penh value at each of the dose levels of methacholine represents the 6-minute average response. Change from baseline (CFB) in Penh was calculated at each methacholine dose and the area under the curve (AUC) for these CFB values was calculated using the trapezoidal rule. This same approach was applied for each mouse across multiple experiments. […] Data from equal experimental conditions across experiments performed on different days were pooled for statistical analysis and data reporting. […] A random intercept for each experiment was assumed to account for possible similarities of the results obtained from a given experiment (i.e., as a “blocking effect”). […] For FIG. 9, linear AUC values from compound treated mice were reported as a percent of linear AUC values from vehicle-treated ovalbumin-sensitized/ovalbumin-challenged (asthmatic) mice.

In another data set the test system is human eosinophils. Briefly: Human eosinophil chemotaxis (eotaxin-induced). Format: cell-based. The note with it: 1 nM eotaxin challenge, one hour; FIG. 11. From the text:
Peripheral blood from healthy human volunteers was collected and the PMNs separated via Ficoll-paque density centrifugation followed by hypotonic lysis of the red blood cells. Subsequently, the human eosinophils were isolated from the cell suspension via StemCell Technologies Human Eosinophil Enrichment kit (Cat. No 19256) according to the manufacturer's recommendations. Briefly, unwanted cells were specifically labeled with dextran-coated magnetic nanoparticles using bispecific Tetrameric Antibody Complexes (TAC) directed against cell surface antigens on human blood cells: […] The unwanted cells are then separated from the unlabelled eosinophils using the EasySep® magnetic isolation procedure. […] FIG. 11 demonstates that chemotaxis was induced by eotaxin in human eosinophils.

A further data set deals with murine eosinophils. Briefly: Murine eosinophil chemotaxis (eotaxin-induced). The note with it: 10 nM eotaxin challenge, one hour; FIG. 10. Format: cell-based, mouse. The method, then: Bronchoalveolar lavage was collected from ovalbumin sensitized and challenged mice in a volume of 2.5 mL lavage buffer. The lavage buffer was 0.9% saline with 10% fetal bovine serum. The pooled lavages were maintained on ice until use. The murine eosinophils were isolated using MACS cell separation (Miltenyi Biotech) by depletion of B cells and T cells by positive selection following incubation with antibody conjugated magnetic beads specific for CD45-R (B220) and CD90 (Thy 1.2), which bind B cells and T cells, respectively.
Eosinophil chemotaxis was assessed using a modified Boyden Chamber (Neuroprobe, 96-well) with a 5 μm pore membrane. The ability of the tested compounds to block chemotaxis induced by a 10 nM eotaxin challenge (mouse) or 1 nM eotaxin challenge (human) during one hour incubation at 37° C. with 5% CO2 was assessed. Chemotaxis was quantified via microscopy by counting the number of migrated cells in at least 3 view fields per treatment. […] FIG. 11 demonstates that chemotaxis was induced by eotaxin in human eosinophils.

Data set [6] relates to ova-sensitized, ova-challenged mice. Briefly: Mouse ovalbumin sensitization model: cytokines (IL-5, Eotaxin, IL-13) in BALF. The format is in vivo. The note with it: oral on days 27 to 31. As for the experimental part: as §2, with “5:15).” for “5:15). Aerosol challenge consists of using an Aerogen Aeroneb nebulizer and controller with a particle size of 4-6 μm mass median aerodynamic diameter (MMAD) with a distribution of 400 μl per minute. This aerosol challenge is necessary to target the Th2-driven allergic inflammation in the lower airways.”
as §3
The concentrations of cytokines in the BALF samples were determined using commercially available Bio-plex kits (Bio-Rad) for the detection of mouse IL-5, IL-13, and Eotaxin. The analysis of cytokine levels was measured using the Bio-Plex 200 (Bio-Rad) system according to the manufacturer's instructions.

Each structure is given as a SMILES string.

With `CS(=O)(=O)Nc1cccc(CN2CCC[C@H](Nc3ccc4[nH]ncc4c3)C2)c1` [Compound 1.091], the pulmonary neutrophilia influx result with LPS-challenged mice [1] is reported as “significant reduction”. Also, the “IL-1β in BALF” value in the data set with LPS-challenged mice [2] was “reduction”. Further, the “eosinophils in BALF” value in data set [3] (dosed i.t. once a day, day 27 to day 30, FIG. 5) was “reduction of eosinophils”. Moreover, in data set [4], the “AUC (0-last)” value is recorded as “BLQ”, the Cmax result was “BLQ”, the Tmax entry is on record as “BLQ” and the Vz_F entry was “BLQ”. Further, in data set [4], the t½ entry is “BLQ”. Besides, the airway hyperreactivity entry in data set [5] (intratracheal once a day, days 27 to 30, FIG. 9) is recorded as “prevention of airway hyperreactivity”.
Regarding `CS(=O)(=O)Nc1cccc(CN2CC[C@@H](Nc3cccc4cnccc34)C2)c1` [Compound 2.038], the “human eosinophil chemotactic response” value in the data set on human eosinophils is “inhibited”. Also, in data set [3] (dosed orally once a day, day 27 to day 31, FIG. 4), the “eosinophils per ml of BALF” value is “reduced”. In data set [5] (oral 15 μMol/kg once a day, days 27 to 31), the “airway hyperreactivity to methacholine on Day 32” value is recorded as “prevention of airway hyperreactivity”. In addition, the “murine eosinophil chemotactic response” value with murine eosinophils is “inhibited”. Also, the “concentration of IL-5 in BALF” value in data set [6] (FIG. 6) is reported as “reduced levels”. The “concentration of Eotaxin in BALF” value in data set [6] (FIG. 7) is listed as “reduced levels”. For the same compound, the “concentration of IL-13 in BALF” value in data set [6] (FIG. 8) is “reduced levels”.
